Source: BindingDB's records for doi:10.1016/j.bmcl.2015.12.063 (Aristotelian University of Thessaloniki, 2016)

Assay: Inhibition of soybean lipoxygenase assessed as formation of 13-hydroperoxylinoleic acid after 7 mins

IC50: 12 µM
SMILES: COc1ccc2cc(C(C)C(=O)N3CCSCC3)ccc2c1 (stereo unspecified)
